Key:
[1] = system: DU145 (Prostate Cancer) cells; experiment: Cellular growth assay (MTT), DU145; assay type: cell-based; conditions: Homo sapiens, DU-145, 40 hr incubation, read-out: DU145 (inhibition of 50% of cellular growth)
Method: (§1) K562 (Chronic Myeloid Leukemia), PC3 (Prostate Cancer), and DU145 (Prostate Cancer) were obtained from the American Type Culture Collection (ATCC). K562 was grown in RPMI, with 10% FBS with Glutamx added. DU145 cells were cultured in DMED, with 10% FBS and Glutamx and MEM non-essential amino acids added. PC3 cells were grown in F12K medium, with 10% FBS and Glutamx and MEM non-essential amino acids added. All cells were grown at 37° C. in 5% CO2.

[2] = system: K562 (Chronic Myeloid Leukemia) cells; experiment: Cellular growth assay (MTT), K562; assay type: cell-based; conditions: Homo sapiens, 40 hr incubation, read-out: K562 (inhibition of 50% of cellular growth)
Method: as §1

TelJak2 = TelJak2 (Homo sapiens, UniProt O60674); experiment: Cellular growth assay (MTT), BaF3 TEL/JAK2 cells; assay type: cell-based; conditions: 40 hr incubation, read-out: TelJak2 (inhibition of 50% of cellular growth)
Tubulin = Tubulin assay (turbidometric microtubule assembly); assay type: biochemical; conditions: at 50 μM, absorbance at 340 nm, 37° C.
Method: Turbidometric assays of microtubule assembly were performed by incubating microtubule protein in cuvettes at 37° C. in a thermostatically controlled spectrophotometer measuring the change in absorbance at 340 nm over time. The microtubule protein was incubated with the each test compound at 0° C. and polymerisation was initiated by addition of 1 mM GTP, prior to heating to 37° C.

TelJak3 = TelJak3 (Homo sapiens, UniProt P52333); experiment: Cellular growth assay (MTT), BaF3 TEL/JAK3 cells; assay type: cell-based; conditions: 40 hr incubation, read-out: TelJak3 (inhibition of 50% of cellular growth)
[3] = system: PC3 (Prostate Cancer) cells; experiment: Cellular growth assay (MTT), PC3; assay type: cell-based; conditions: Homo sapiens, PC-3, 40 hr incubation, read-out: PC3 (inhibition of 50% of cellular growth)
Method: as §1

Sequence of TelJak3 (P52333 with tags, fused parts or gaps): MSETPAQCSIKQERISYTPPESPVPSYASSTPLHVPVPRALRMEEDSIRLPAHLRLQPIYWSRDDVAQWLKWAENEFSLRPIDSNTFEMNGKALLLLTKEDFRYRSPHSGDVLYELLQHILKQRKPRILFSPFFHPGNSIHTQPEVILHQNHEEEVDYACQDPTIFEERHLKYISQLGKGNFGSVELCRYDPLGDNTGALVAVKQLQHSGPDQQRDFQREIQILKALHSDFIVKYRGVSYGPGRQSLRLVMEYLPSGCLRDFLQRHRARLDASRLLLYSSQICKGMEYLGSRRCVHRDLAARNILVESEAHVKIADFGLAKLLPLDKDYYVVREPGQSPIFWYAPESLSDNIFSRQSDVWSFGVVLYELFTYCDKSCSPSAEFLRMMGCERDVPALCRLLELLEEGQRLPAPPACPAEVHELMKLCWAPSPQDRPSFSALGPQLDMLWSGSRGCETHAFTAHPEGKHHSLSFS
Sequence of TelJak2 (O60674 with tags, fused parts or gaps): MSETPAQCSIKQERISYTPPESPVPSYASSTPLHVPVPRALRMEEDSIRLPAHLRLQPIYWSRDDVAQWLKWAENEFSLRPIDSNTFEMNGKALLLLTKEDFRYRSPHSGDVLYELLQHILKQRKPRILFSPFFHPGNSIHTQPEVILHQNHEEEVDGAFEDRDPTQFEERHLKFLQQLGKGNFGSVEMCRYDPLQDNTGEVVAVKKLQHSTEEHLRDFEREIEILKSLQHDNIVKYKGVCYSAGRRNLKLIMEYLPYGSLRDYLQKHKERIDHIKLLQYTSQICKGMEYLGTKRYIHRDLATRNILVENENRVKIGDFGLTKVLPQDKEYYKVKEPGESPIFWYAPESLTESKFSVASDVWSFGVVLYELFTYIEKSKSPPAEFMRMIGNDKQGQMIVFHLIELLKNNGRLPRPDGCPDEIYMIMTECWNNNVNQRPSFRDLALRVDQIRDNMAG

SMILES | IC50 [1] | IC50 [2] | IC50 (TelJak2) | Tubulin (inhibition of tubulin polymerisation) (Tubulin) | IC50 (TelJak3) | IC50 [3]
CCCC(Nc1cncc(-c2ccc(O)c(OC)c2)n1)c1ccc(F)cc1 (stereo not drawn) | ≤ 20 µM | ≤ 20 µM | ≤ 20 µM | + (inhibited tubulin polymerisation by greater than 50% at 50 μM) | ≤ 20 µM | > 20 µM
CCCC(Nc1cncc(-c2ccc(O)c(OC)c2)n1)c1cccc(C(F)(F)F)c1 (stereo not drawn) | ≤ 20 µM | ≤ 20 µM | ≤ 20 µM | + (inhibited tubulin polymerisation by greater than 50% at 50 μM) | ≤ 20 µM | ≤ 20 µM
COc1cc(-c2cncc(NC(CCN3CCN(C)CC3)c3ccccc3)n2)ccc1O (stereo not drawn) | ≤ 20 µM | ≤ 20 µM | ≤ 20 µM | + (inhibited tubulin polymerisation by greater than 50% at 50 μM) | ≤ 20 µM | ≤ 20 µM
CCCC(Nc1cncc(-c2ccc(O)c(OC)c2)n1)c1cc(C)ccc1C (stereo not drawn) | ≤ 20 µM | ≤ 20 µM | ≤ 20 µM | + (inhibited tubulin polymerisation by greater than 50% at 50 μM) | ≤ 20 µM | ≤ 20 µM
CCCC(Nc1cncc(-c2ccc(O)c(OC)c2)n1)c1ccc(OC)nc1 (stereo not drawn) | ≤ 20 µM | ≤ 20 µM | ≤ 20 µM | + (inhibited tubulin polymerisation by greater than 50% at 50 μM) | ≤ 20 µM | > 20 µM
CCCC(Nc1cncc(-c2ccc(NC(C)=O)c(OC)c2)n1)c1ccc(F)cc1 (stereo not drawn) | ≤ 20 µM | ≤ 20 µM | ≤ 20 µM | + (inhibited tubulin polymerisation by greater than 50% at 50 μM) | ≤ 20 µM | ≤ 20 µM
CCCC(Nc1cncc(-c2cc(C)c(O)c(C)c2)n1)c1ccc(F)cc1 (stereo not drawn) | ≤ 20 µM | ≤ 20 µM | ≤ 20 µM | + (inhibited tubulin polymerisation by greater than 50% at 50 μM) | ≤ 20 µM | ≤ 20 µM
CCCC(Nc1cncc(-c2cc(C)c(OCCN(CC)CC)c(C)c2)n1)c1ccc(F)cc1 (stereo not drawn) | ≤ 20 µM | ≤ 20 µM | ≤ 20 µM | + (inhibited tubulin polymerisation by greater than 50% at 50 μM) | ≤ 20 µM | ≤ 20 µM
